Reference: article PMC9960827, “Cloning and Characterization of Trypanosoma congolense and T. vivax Nucleoside Transporters Reveal the Potential of P1-Type Carriers for the Discovery of Broad-Spectrum Nucleoside-Based Therapeutics against Animal African Trypanosomiasis” (International Journal of Molecular Sciences, 2023)
Where “and” joins values, the source holds several entries; their conditions need not be identical. Equal values may be shown once. Read-outs that look alike come from different tables or passages of the source.

Columns and labels:
TcoAT1 = assay type: cell-based, Trypanosoma congolense; details: for Ki: 0.05 µM [3H]-adenosine, 10 s, IC50 converted to Ki, read-out: Ki on the transport of [3H]-adenosine; for ΔG0: Gibbs free energy of binding, from Km or Ki; for δ(ΔG0): loss of Gibbs free energy of binding relative to the parent nucleoside
Excerpt: (§1) The information for the T. congolense adenosine transporter (TcoAT1) and four putative T. vivax nucleoside transporters was obtained in the TritrypDB (tritrypdb.org/tritrypdb) genome database. Primers were designed to flank each gene upstream of the 5′ end (forward) and downstream of the 3′ end (reverse) as described (primer sequences in Supplementary Table S2). Following amplification from the genomic DNA of T. congolense or T. vivax, DNA for each extracted gene was ligated into the pNUS-HcN expression vector doubly digested with NdeI using the NEBuilder kit according to the manufacturer’s instructions (New England Biolabs). Construct was transformed into competent E. coli cells, and ligation was confirmed by restriction enzyme digestion of isolated plasmid DNA followed by Sanger sequencing (Source BioScience, Nottingham, UK). Confirmed plasmids were then transfected into L. mexicana cell line in which both NT1 and NT2 were doubly knocked out (SUPKO) and derived from L. mexicana Cas9 [64] as described. Clones grown in medium containing 50 μg/mL neomycin (G418) were collected for further confirmation by PCR with genomic DNA using a forward primer of the transporter gene and a reverse primer of the plasmid.
(§2) Uptake assays using radiolabeled trypanocides and/or nucleosides were carried out as described previously. Briefly, parasite cultures were harvested, washed twice in assay buffer (33 mM HEPES, 98 mM NaCl, 4.6 mM KCl, 0.5 mM CaCl2, 0.07 mM MgSO4, 5.8 mM NaH3PO4, 0.03 mM MgCl2, 23 mM NaHCO3, 14 mM D-glucose, pH 7.3), then resuspended and adjusted to a density of 1 × 10^8 cells/mL in assay buffer. The radiolabeled permeant in the presence or absence of different concentrations of potential inhibitors reconstituted in 100 μL assay buffer was deposited on top of 250 μL oil mix in microcentrifuge tubes; 1 × 10^7 parasites in 100 μL assay buffer were added to the tube and incubated for a pre-determined interval. The reaction was stopped by the addition of 1 mL of a high concentration of ice-cold unlabeled substrate in assay buffer (‘stop solution’) and centrifugation, or by immediate centrifugation at […] as appropriate. The microcentrifuge tubes were flash-frozen, and the bottom of each tube containing the cell pellet was cut off and transferred to a scintillation vial. Cell pellets were lysed in 2% SDS, after which scintillation fluid (Scintlogic U, Lablogic) was added, followed by overnight incubation in the dark. Scintillation was measured in a 300SL (Hidex) scintillation counter (Hidex). All the assays were conducted in triplicate and analysis was carried out using Microsoft Excel and GraphPad Prism. All kinetic parameters were obtained on at least 3 separate occasions.
(§3) The dose-dependent uptake assay allowed for the affinity of nucleoside analogs to different nucleoside transporters to be determined by measuring the extent to which the analogs compete with and inhibit the uptake of radiolabel adenosine. This allowed for the determination of biochemical parameters such as Km and Vmax through the application of the Michaelis–Menten equation V0 = Vmax([substrate]/([substrate] + Km)). The 50% Inhibitory Concentration (IC50) of the purines and pyrimidines and their analogs was determined from non-linear regression to sigmoid curves with variable slope (Prism 8), and the IC50 of the inhibitor and the Km of the labeled permeant were then used to calculate the inhibition constant (Ki) of the analogs through the Cheng–Prusoff equation: Ki = IC50/(1 + (L/Km)), where L denotes the radiolabel concentration. The calculated Ki was in turn used to determine the Gibbs free energy (ΔG^0) of the inhibitor–transporter interaction using the equation: ΔG^0 = -RTln(Ki), where R represents the gas constant and T symbolizes the absolute temperature in Kelvin [104].

TvxNT3 = TvxNT3 (Trypanosoma vivax, UniProt F9WV62); assay: cell-based; assay type: cell-based; details: for ΔG0: Gibbs free energy of interaction, from Km or Ki; for δ(ΔG0): difference in ΔG0 relative to the parent purine (adenosine or inosine); for remaining activity at 100 µM: read-out: [3H]-adenosine uptake remaining in presence of inhibitor
Excerpt: as §1, §2, §3

L. mexicana Cas9 = assay: Resazurin drug sensitivity assay, LmexCas9; assay type: cell-based, Leishmania mexicana; details: read-out: LmexCas9 EC50
Method: (§4) EC50 values were determined by plotting to an equation for a sigmoid curve with variable slope (GraphPad Prism 8). All values were the average of at least three independent determinations on different days.

L. mexicana SUPKO+TvxNT3 = assay: microbe, parasite or virus in culture; assay type: cell-based, Leishmania mexicana; details: for EC50: read-out: SUPKO+TvxNT3 EC50
Method: as §4

L. mexicana SUPKO = assay: microbe, parasite or virus in culture; assay type: cell-based, Leishmania mexicana
Method: as §4

L. mexicana SUPKO+TcoAT1 = assay: microbe, parasite or virus in culture; assay type: cell-based, Leishmania mexicana; details: for EC50: read-out: SUPKO+TcoAT1 EC50
Method: as §4

[1] = biological target: T. congolense adenosine transporter; assay: [3H]-adenosine uptake and its inhibition in T. congolense IL3000 bloodstream forms; assay type: cell-based, Trypanosoma congolense; details: for Ki: 0.05 µM [3H]-adenosine, 30 s, IC50 converted to Ki, read-out: Ki on the transport of [3H]-adenosine; for ΔG0, Gibbs free energy of interaction: calculated from Km or Ki; for Ki values fold higher than those for the purines: inhibition of adenosine uptake
Method: as §2, §3

[2] = biological target: T. b. brucei P1 (TbP1/NT2); details: cited from earlier work; for Ki: T. b. brucei bloodstream forms, read-out: Tbb P1 Ki
[3] = Resistance Factor relative to SUPKO
[4] = resazurin, promastigotes, read-out: SUPKO EC50

Sequence of TvxNT3 (F9WV62 entry or part of it): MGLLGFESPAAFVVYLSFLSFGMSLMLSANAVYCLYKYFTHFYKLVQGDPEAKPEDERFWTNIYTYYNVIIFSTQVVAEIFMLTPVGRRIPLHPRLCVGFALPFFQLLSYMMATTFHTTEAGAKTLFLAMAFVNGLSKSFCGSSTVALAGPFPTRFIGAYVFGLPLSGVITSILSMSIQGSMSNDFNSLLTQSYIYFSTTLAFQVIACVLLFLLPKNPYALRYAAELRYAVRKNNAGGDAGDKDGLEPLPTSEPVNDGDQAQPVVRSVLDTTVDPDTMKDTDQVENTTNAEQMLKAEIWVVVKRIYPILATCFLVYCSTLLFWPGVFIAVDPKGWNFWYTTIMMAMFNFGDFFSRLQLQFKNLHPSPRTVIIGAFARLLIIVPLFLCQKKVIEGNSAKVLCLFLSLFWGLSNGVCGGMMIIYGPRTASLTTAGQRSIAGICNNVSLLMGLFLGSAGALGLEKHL

SMILES | Ki (TcoAT1) | ΔG0 (TcoAT1) | δ(ΔG0) (TcoAT1) | ΔG0 (TvxNT3) | δ(ΔG0) (TvxNT3) | other results
Nc1ccnc2c1ncn2[C@@H]1O[C@H](CO)[C@@H](O)[C@H]1O [1-deazaadenosine] | 1.03 ± 0.34 µM | -34.2 kJ/mol | 2.24 kJ/mol |  |  | 
Nc1ncnc2c1ncn2[C@H]1CC[C@@H](CO)O1 [2′,3′-dideoxyadenosine] | 51.9 ± 2.6 µM | -24.4 kJ/mol | 11.95 kJ/mol |  |  | 
OC[C@@H]1CC[C@H](n2cnc3c(O)ncnc32)O1 [2′,3′-dideoxyinosine] | 85.4 ± 7.1 µM | -23.2 kJ/mol | 12.51 kJ/mol |  |  | 
Nc1ncnc2c1ncn2[C@H]1C[C@H](O)[C@@H](CO)O1 [2′-deoxyadenosine] | 0.5 ± 0.07 µM | -36.0 kJ/mol | 0.44 kJ/mol | -34.1 kJ/mol | 0.70 kJ/mol | 
Nc1nccc2c1ncn2[C@@H]1O[C@H](CO)[C@@H](O)[C@H]1O [3-deazaadenosine] | 138 ± 37 µM | -22.0 kJ/mol | 14.4 kJ/mol and 14.37 kJ/mol |  |  | 
OC[C@H]1O[C@@H](n2cnc3c(O)nccc32)[C@H](O)[C@@H]1O [3-deazainosine] |  |  |  | -25.6 kJ/mol |  | 
C[C@H]1O[C@@H](n2cnc3c(N)ncnc32)[C@H](O)[C@@H]1O [5′-deoxyadenosine] | 0.45 ± 0.08 µM | -36.2 kJ/mol | 0.18 kJ/mol | -34.0 kJ/mol | 0.63 kJ/mol | 
OC[C@H]1O[C@@H](n2cnc3c(S)ncnc32)[C@H](O)[C@@H]1O [6-thioinosine] |  |  |  | -30.8 kJ/mol |  | 
Nc1ncnc2[nH]cnc12 [Adenine] | 761 ± 103 µM | -17.8 kJ/mol | 18.60 kJ/mol | -32.04 kJ/mol | -1.34 kJ/mol | δ(ΔG0) (TvxNT3; listed as adenine): 1.34 kJ/mol; remaining activity at 100 µM (TvxNT3): < 25%; Ki (TcoAT1; listed as ADE): 786 µM
COc1ncnc2c1ccn2[C@@H]1O[C@H](CO)[C@@H](O)[C@H]1O [CL4510, 6-methoxy-7-deazapurine riboside] | 226 ± 26 µM | -20.8 kJ/mol |  | -27.4 kJ/mol |  | EC50 (L. mexicana Cas9; resazurin, promastigotes): 0.39 ± 0.05 µM; Ki (TvxNT3; 50 nM [3H]-adenosine, 90 s, IC50 converted to Ki, read-out: Ki on the transport of [3H]-adenosine): 16.1 ± 2.8 µM; SUPKO+TvxNT3 RF (SUPKO) (L. mexicana SUPKO+TvxNT3; [3]): 1.1; EC50 (L. mexicana SUPKO+TvxNT3; resazurin, promastigotes): 2.05 ± 0.04 µM; SUPKO RF (Cas9) (L. mexicana SUPKO; Resistance Factor = EC50(SUPKO)/EC50(Cas9)): 5.84; EC50 (L. mexicana SUPKO; [4]): 2.3 µM and 2.28 µM; SUPKO+TcoAT1 RF (SUPKO) (L. mexicana SUPKO+TcoAT1; [3]): 1.03; EC50 (L. mexicana SUPKO+TcoAT1; resazurin, promastigotes): 2.2 ± 0.03 µM
Nc1ccn([C@@H]2O[C@H](CO)[C@@H](O)[C@H]2O)c(=O)n1 [Cytidine] | 1580 ± 69.2 µM | -16.0 kJ/mol | 20.41 kJ/mol |  |  | Ki [1]: 1180 ± 148 µM; ΔG0, Gibbs free energy of interaction [1]: -16.7 kJ/mol; Ki values fold higher than those for the purines [1]: > 90 fold; Ki [2]: > 250 µM
Nc1nc2c(ncn2[C@@H]2O[C@H](CO)[C@@H](O)[C@H]2O)c(=O)[nH]1 [Guanosine] | 0.8 ± 0.09 µM | -34.8 kJ/mol | 1.62 kJ/mol | -33.45 kJ/mol | 0.07 kJ/mol | remaining activity at 100 µM (TvxNT3; 100 µM inhibitor, 50 nM [3H]-adenosine): < 25%; Ki [1]: 1.06 ± 0.07 µM; ΔG0, Gibbs free energy of interaction [1]: -34.1 kJ/mol; Ki [2]: 1.8 ± 0.3 µM; Tbb P1 ΔG0 [2]: -32.7 kJ/mol
O=c1[nH]cnc2nc[nH]c12 [Hypoxanthine] | 61.2 ± 3.26 µM | -24.0 kJ/mol | 11.68 kJ/mol | -32.85 kJ/mol | -7.45 kJ/mol | δ(ΔG0) (TvxNT3; listed as hypoxanthine): 5.61 kJ/mol; remaining activity at 100 µM (TvxNT3): < 25%
OC[C@H]1O[C@@H](n2cnc3cncnc32)[C@H](O)[C@@H]1O [Nebularine] |  |  |  | -30.4 kJ/mol | -2.94 kJ/mol | δ(ΔG0) (TvxNT3; listed as nebularine): 2.9 kJ/mol
Nc1ncnc2c1c(-c1ccccc1)cn2C1OC(CO)C(O)C1O (centres unmarked) [TH1012, 7-phenyltubercidin] | 146 ± 58 µM | -21.9 kJ/mol |  |  |  | 
Cc1cn([C@H]2C[C@H](O)[C@@H](CO)O2)c(=O)[nH]c1=O [Thymidine] | 434 ± 46.4 µM | -19.2 kJ/mol | 17.21 kJ/mol | -18.37 kJ/mol | -15.01 kJ/mol | Ki (TcoAT1; listed as TMD): 49.6 µM; Ki [1]: 94.6 ± 11.5 µM; ΔG0, Gibbs free energy of interaction [1]: -23.0 kJ/mol; Ki values fold higher than those for the purines [1]: > 90 fold; Ki [2]: 44 ± 10 µM
O=c1ccn([C@@H]2O[C@H](CO)[C@@H](O)[C@H]2O)c(=O)[nH]1 [Uridine] | 1470 ± 172 µM | -16.2 kJ/mol | 20.23 kJ/mol | -17.93 kJ/mol | -15.45 kJ/mol | Ki (TcoAT1; listed as URD): 147 µM; Ki [1]: 390 ± 9.1 µM; ΔG0, Gibbs free energy of interaction [1]: -19.4 kJ/mol; Ki values fold higher than those for the purines [1]: > 90 fold; Ki [2]: 830 ± 86 µM; Tbb P1 ΔG0 [2]: -18.7 kJ/mol
NCCS[As](SCCN)c1ccc(Nc2nc(N)nc(N)n2)cc1 [melarsomine, reference compound] |  |  |  |  |  | EC50 (L. mexicana Cas9; resazurin, promastigotes): > 100 µM; EC50 (L. mexicana SUPKO+TvxNT3; resazurin, promastigotes): > 100 µM; EC50 (L. mexicana SUPKO; [4]): > 100 µM; EC50 (L. mexicana SUPKO+TcoAT1; resazurin, promastigotes): > 100 µM
Cc1ccc(C(=O)Nc2ccc(S(=O)(=O)O)c3cc(S(=O)(=O)O)cc(S(=O)(=O)O)c23)cc1NC(=O)c1cccc(NC(=O)Nc2cccc(C(=O)Nc3cc(C(=O)Nc4ccc(S(=O)(=O)O)c5cc(S(=O)(=O)O)cc(S(=O)(=O)O)c45)ccc3C)c2)c1 [suramin, reference compound] |  |  |  |  |  | EC50 (L. mexicana Cas9; Leishmania mexicana): > 100 µM; EC50 (L. mexicana SUPKO+TvxNT3; Leishmania mexicana): > 100 µM; EC50 (L. mexicana SUPKO; Leishmania mexicana, read-out: SUPKO EC50, resazurin, promastigotes): > 100 µM; EC50 (L. mexicana SUPKO+TcoAT1; Leishmania mexicana): > 100 µM
